Reference: patent US8039501B2, “Synephrine derivatives useful as anti-inflammatory agents” (Universiteit Gent, priority 2005, dated 2011)

Assays:
NFκB = test: EMSA of NFkB DNA binding in MCF7 cells; type: cell-based, human; details: pre-treated 10, 1, 0.1, 0.01, 0.001 μM for two hours, TNF 2000 IU/ml 30 min, FIG. 7A
Procedure: (§1) For the EMSA, the MCF7 cells were pre-treated with varying concentrations of CpdA (10, 1, 0.1, 0.01, and 0.001 μM) and DEX (0.1 μM) for two hours and subsequently TNF-induced or non-TNF-induced during 30 min at 2000 IU/ml. After the induction period, nuclear extracts were examined in EMSA assays. Cells were washed with ice-cold PBS, scraped off, and pelleted in 15 ml of PBS by centrifugation for 5 min at 2600 rpm at 4° C. and lysed for 30 minutes at 4° C. in Totex buffer (20 mM HEPES (pH 7.9), 350 mM NaCl, 1 mM MgCl, 0.5 mM EDTA, 0.1 mM EGTA, 5 mM DTT, 20% glycerol, 1% NP-40, 0.1% PMSF, 1% aprotinin (4 mg/ml leupeptin). Supernatants from a 4000-rpm 10-min centrifugation were collected, aliquoted and stored at −20° C. until further use. Radiolabelled oligonucleotides that correspond to a consensus κB DNA-binding element of the IL-6 promoter, and of activating protein 1 (AP-1) DNA target-were used for appropriate EMSA's. These oligonucleotides of about 25 nucleotides comprise centrally the transcription factor binding motif. […] The samples were analyzed by electrophoresis on 6% native polyacrylamide gels. […] Visualization and quantitation of radioactive signals was carried out by a Phosphorlmager and scanned using a bioimaging analyzer (Personal Molecular Imager® FX Bio-Rad). […]

[1] = MTT test, cell viability of L929sA fibroblasts; type: cell-based, murine; details: mouse, L929sA fibroblast cells, read-out: Block of L929sA cell viability
Procedure: The MTT test is a standard assay addressing cell toxicity of a compound. It is based on the principle that after 3-4 hours of cell incubation with MTT (3-(4,5-dimethylthiazole-2-yl)-2,5-diphenyl tetrazolium bromide) so-called purple formazan crystals develop in living and early apoptotic cells. Dead cells don't produce formazan crystals.
Different cell lines were tested. Unless indicated differently, A549 human lung epithelial cells (derived from lung carcinoma) and L929sA murine fibroblast cells were cultured in DMEM with 10% FCS, 100 U/ml penicillin and 100 μg/ml streptomycin. Unless indicated differently, the human multiple myeloma cell lines L363, U266 and MM1.S were cultured in RPMI 1640 with Glutamax-I, supplemented with 10% FCS, 100 U/ml penicillin and 100 μg/ml streptomycin. Cells were seeded at 5000 cells/well (for adherent A549 and L929sA cells) or at 10000 cells/well (for the multiple myeloma lines in suspension) in 96 well plates. Cells were incubated in the presence of the respective synephrine compounds or vehicle (EtOH; for control test) in a final volume of 0.2 ml for 24 or 48 hours at 37° C. Subsequently, 20 μl of MTT solution (5 mg/ml in phosphate-buffered saline) was added to each well. After 4 hours incubation at 37° C., 80 μl of the extraction buffer (10% SDS, 0.01 M HCl) was added. After overnight incubation at room temperature, the optical densities at 590 nm were measured. Results are illustrated in FIGS. 2 to 6 and are expressed as percentage of viable cells as compared to vehicle-treated controls.
In a further MTT test, the activity of the synephrine derivatives on the inhibition of cell viability of non-immune cells was measured. […] Tests were performed for 24 hours and for 48 hours. The results are illustrated by FIGS. 5A and 5B for L929 cells, and by FIGS. 6A and 6B for A549 cells. It was observed that CpdA at 10^−5 M blocked cell viability of L929sA and A549 for not more than 10%.

[2] = Serum ELISA of osteoclast and osteoblast markers in DBA/1 mice; details: 300 μg daily, 8 days
Text: DBA/1 mice—Male 8- to 12-wk-old DBA/1 mice were purchased from Janvier and housed following institutional guidelines. All animal procedures were approved by the institutional animal care and ethics committee. […] The human IL-6 and IL-8 cytoset were purchased from BioSource International, Inc. For the detection of TRAP5b in DBA/1 mice serum we used the Mouse TRAP Assay, purchased from Immunodiagnostic systems limited. The osteocalcin EIA kit was purchased from Biomedical Technologies, Inc. All assays were performed according to the manufacturer's instructions.

AP1 = test: EMSA of AP1 DNA binding in MCF7 cells; type: cell-based, human; details: FIG. 7B
Procedure: as §1

MCF7 breast cancer cells = details: 10^−5 M
Procedure: In further experiments, nylon arrayfilter hybridization experiments were performed. cDNA array analyses were carried out according to the instructions of the manufacturer (SuperArray Simplicity GEArray™ KIT) on the cDNA arrays cancer pathway finder and stress and toxicity array. Total RNA, obtained by the protocol as described herein above, was used as a template for [α−^33P]-cDNA probe synthesis using the following steps:
A second array hybridization experiment was performed on Human Stress and Toxicity Pathway Finder GEarray Q series. The same protocol was followed as for the array hybridization experiment on the Human Cancer Pathway Finder described herein above.

SMILES: CNCC(Cl)c1ccc(OC(C)=O)cc1.Cl (stereo not drawn) [CpdA, 2-(4-acetoxyphenyl)-2-chloro-N-methyl-ethylammonium chloride]
- NFkB available for DNA binding (EMSA) (NFκB): significant impairment of NFkB available for DNA binding
- cytotoxicity at 24 h ([1]; 10^−4 M, 24 hours, FIG. 5A): 20%
- cytotoxicity at 48 h ([1]; 10^−4 M, 48 hours, FIG. 5B): 60%
- cytotoxicity ([1]; 10^−5 M, 24 hours and 48 hours, FIGS. 5A and 5B): ≤ 10%
- Amount of active osteoclasts (TRAP5b) in serum ([2]; FIG. 21A): does not alter the amount of active osteoclasts (TRAP5b)
- Osteocalcin levels in mouse serum ([2]; FIG. 21B): does not significantly alter the osteocalcin levels in mouse serum
- DNA-binding of transcription factor AP1 (EMSA) (AP1): not affected
- Gene response of CRYAB, DNAJA1, pcna, mdm2 (MCF7 breast cancer cells): increased gene response
- Levels of HSPA1A, HSPA1B, HSPA4 (=hsp70), CSF2, SCYA4 (MIP1B), ANXA5, casp10, casp8, ERCC5, TNFSF6 (FasL) (MCF7 breast cancer cells): increases levels
